US5721266A, “Substituted imidazolinyl-imidazolines as antagonists of SH-2 binding and therapeutic uses thereof” (Warner-Lambert Company, priority 1994, dated 1998)
pIC50: −log10 of the molar value. Like-named read-outs stand apart in the source and are kept apart here.

Legend:
[1] = biological target: T1, [35S]abl SH-2 / activated EGF receptor (Homo sapiens, UniProt P00519); assay: in vitro inhibition of [35S]abl SH-2 interactions with activated EGF receptor; assay type: binding; conditions: for IC50: [35S]abl SH-2 binding to activated EGF receptor, read-out: IC50
T1 construct: containing the SH-2 domain of abl; made in house; host or cells: abl SH-2 fusion: bacteria, labelled in vivo with 35S; EGFR partner: EGF-treated 3T3 cells transfected with human EGFR, immunoprecipitated
T1 sequence (P00519 127-217 limits assumed): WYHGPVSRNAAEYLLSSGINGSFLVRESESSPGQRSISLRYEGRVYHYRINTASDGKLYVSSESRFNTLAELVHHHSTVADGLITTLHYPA
Protocol: The ability of some of the preferred compounds of the present invention to inhibit SH-2 interactions with activated tyrosine kinase receptors was measured using an in vitro biological assay. The test assesses the ability of a test compound to inhibit the interaction of [^35 S]abl SH-2 with activated EGF receptors, or with other receptor tyrosine kinases.
A bacterial glutathione-S-transferase fusion protein, containing the SH-2 domain of abl, is labelled in vivo with ^35 S. Phosphorylated EGFR is purified from EGF-treated 3T3 cells transfected with the human EGFR by precipitation with anti-EGFR antisera. The resulting immune complex is bound to protein A--Sepharose beads. Binding of the ^35 S labelled abl fusion protein (77 nM) to the purified EGFR beads complex (approximately 1 μg of receptor/assay) is allowed to proceed to equilibrium (30 minutes) in a total volume of 0.4 mL, in the presence of the test compounds. Bound ^35 S fusion protein is separated from free by filtration through 0.65 μ DUPP filters, and radioactivity is determined by scintillation counting.
Results of the binding study are expressed in Table 1 as IC50 values, i.e., the concentration of test compound required to inhibit [^35 S]abl SH-2 interactions with the activated EGF receptor.

[2] = test system: Rat Aortic Smooth Muscle Cells (RASMC); assay: [3H]Thymidine Incorporation Assay, smooth muscle cell proliferation stimulated by serum; assay type: cell-based; conditions: 22 hours
Protocol: (§1) SH-2 tyrosine kinase inhibitors may block the signal transduction pathways for platelet derived growth factor ("PDGF") and fibroblast growth factor ("FGF"), which have been implicated in the control of smooth muscle cell proliferation. The ability of some of the preferred compounds of the present invention to inhibit smooth muscle cell (SMC) proliferation stimulated by PDGF or serum was measured using the biological assay discussed below.
(§2) Rat Aortic Smooth Muscle Cells (RASMC) were plated into a 24-well plate (30,000 cells/well) in DMEM with 10% Fetal Bovine Serum (FBS). After 4 days cells reached confluence and were made quiescent by incubation in DMEM/F12 medium (Gibco) containing 0.2% FBS for another 2 days. Incubation with the growth factors, PDGF-BB and bFGF as well as FBS, and test compound was carried out in 0.5 mL/well serum-substituted medium (DMEM/F12+1% CPSR-2 from Sigma) for 22 hours. After 18 hours, 0.25 μCi/well [^3 H]thymidine was added. Four hours later the incubation was stopped by removing the radioactive media, washing the cells twice with 1 mL cold phosphate-buffered saline, and then washing 2 times with cold 5% trichloroacetic acid. The acid-insoluble fraction was lysed in 0.75 mL 0.25N NaOH and the radioactivity determined by liquid scintillation counting.
(§3) Smooth muscle cells were isolated from the thoracic aorta of rats (RASMC) and explanted according to the method of Ross, et al., Cell Biology 50:172-186 (1971). Cells were grown in Dulbecco's modified Eagle's medium (DMEM, Gibco) containing 10% fetal calf serum (FBS, Hyclone, Logan, Utah), 1% glutamine (Gibco), and 1% penicillin/streptomycin (Gibco). Cells were identified as smooth muscle cells by their "hill and valley" growth pattern and by fluorescent staining with a monoclonal antibody specific for SMC α-actin (Sigma). RASMC were used between passages 5 and 20 for all experiments. Test compounds were prepared in dimethylsulfoxide (DMSO) in order to achieve consistency in the vehicle and to ensure compound solubility. Appropriate DMSO controls were simultaneously evaluated with the test compounds.
(§4) The results of the cellular proliferation assay are expressed in Table 2 as IC50 values, i.e., the concentration of test compound required to inhibit [^3 H]thymidine incorporation into smooth muscle cells.

[3] = test system: Rat Aortic Smooth Muscle Cells (RASMC); assay: [3H]Thymidine Incorporation Assay, smooth muscle cell proliferation stimulated by PDGF; assay type: cell-based; conditions: 22 hours
Protocol: as §1, §2, §3, §4

K562 = assay: inhibition of growth of tumor cells, K562; assay type: cell-based; conditions: 96 h, human chronic myelogenous leukemia, expresses p210 bcr-abl, 4 days
Protocol: (§5) In one screen, K562 human erythroleukemic cells were seeded at 6×10^4 cells/mL in RPMI 1640 medium containing 10% fetal bovine serum. These cells score positively for the Philadelphia chromosome, and are known to be transformed by the bcr-abl oncogene. At the time of seeding, test compound, or vehicle (DMSO), were added. Cells were counted 4 days after seeding using a hemocytometer.
The results of this experiment for a representative compound of the present invention appears in Table 3. Test Compound A is N,N'-decamethylenebis[2-amino-1-(2-imidazolin-2-yl)-2-imidazoline, dihydroiodide. The inhibition of growth of tumor cells is expressed as IC50 values; i.e., the concentration of test compound required to inhibit growth of the tumor cells by 50%.

KG-1A = assay: inhibition of growth of tumor cells, KG-1A; assay type: cell-based; conditions: human acute myelogenous leukemia, no bcr-abl
MOLT-4 = assay: inhibition of growth of tumor cells, MOLT-4; assay type: cell-based; conditions: human acute lymphoblastic leukemia, no bcr-abl
A431 = assay: inhibition of growth of tumor cells, A431; assay type: cell-based; conditions: A-431, human epidermoid carcinoma, overexpresses EGF receptor
SWISS 3T3 = assay: inhibition of cell growth, SWISS 3T3; assay type: cell-based; conditions: mouse fibroblast
HCT-8 = assay: inhibition of growth of tumor cells, HCT-8; assay type: cell-based; conditions: human colon carcinoma, 18,000 EGF receptors/cell
L1210 = assay: inhibition of growth of tumor cells, L1210; assay type: cell-based; conditions: mouse lymphocytic leukemia
MCF-7 = assay: inhibition of growth of tumor cells, MCF-7; assay type: cell-based; conditions: Homo sapiens, MCF7, estrogen dependent breast adenocarcinoma, 3000 EGF receptors/cell, some erbB2
MDA-231 = assay: inhibition of growth of tumor cells, MDA-231; assay type: cell-based; conditions: Homo sapiens, MDA-MB-231, breast adenocarcinoma, moderate EGFR and erbB2
MDA-468 = assay: inhibition of growth of tumor cells, MDA-468; assay type: cell-based; conditions: estrogen independent breast adenocarcinoma, overexpresses EGF receptor
NIH 2.2 = assay: inhibition of cell growth, NIH 2.2; assay type: cell-based; conditions: mouse fibroblast, no EGF receptor
NIH EGF-R = assay: inhibition of cell growth, NIH EGF-R; assay type: cell-based; conditions: mouse fibroblast, high expression of EGF receptor
K562 cell line [4] = assay: viability of the K562 cell line (FIGS. 1 and 2); assay type: cell-based, human
Protocol: as §5
(§6) In this example, an experiment was conducted to determine the inhibition of the growth of tumor cells from the K562 cell line upon exposure to Test Compound A specified in Example 3. The screen was conducted as described in Example 3.

K562 cell line [5] = assay: proliferation of K562 cell line (FIG. 3); assay type: cell-based, human; conditions: FIG. 3, wide range of concentrations
Protocol: as §5, §6

KG-1A cell line = assay: proliferation of KG-1A cell line (FIG. 3); assay type: cell-based, human; conditions: FIG. 3, wide range of concentrations
Protocol: [The procedure below names another cell line; the source lists this cell line under the same test.] as §5, §6

| Structure (SMILES) | IC50 ([1]; values in μM) [µM] | pIC50 [2] | pIC50 [3] | other results |
| --- | --- | --- | --- | --- |
| C(CCNC1=NCCN1C1=NCCN1)CNC1=NCCN1C1=NCCN1 | 27 | – | – | – |
| C(CCCCCNC1=NCCN1C1=NCCN1)CCCCNC1=NCCN1C1=NCCN1 [Compound A] | – | 5.30 | 5.55 | IC50 ([1]; values in nM): 0.05 µM; pIC50 (K562): 6.22; pIC50 (KG-1A): 4.00; pIC50 (MOLT-4): 5.68; pIC50 (A431): 5.36; pIC50 (SWISS 3T3): < 4.30; pIC50 (HCT-8): 5.18; pIC50 (L1210): 6.00; pIC50 (MCF-7): 5.11; pIC50 (MDA-231): 4.85; pIC50 (MDA-468): 6.05; pIC50 (NIH 2.2): < 4.60; pIC50 (NIH EGF-R): < 4.60; viability of the K562 cell line (K562 cell line [4]; FIG. 1, increased concentrations): steadily decline; viability of the K562 cell line over time (K562 cell line [4]; FIG. 2, 3 μM versus 0.3 μM, compared against a control): substantially greater effect at decreasing the viability; growth rate of the K562 cell line (K562 cell line [5]): substantially decreased; growth rate of the KG-1A cell line (KG-1A cell line): only slightly decreased |
| CCCCCCCNC1=NCCN1C1=NCCN1 [drawing 21, 2-(Heptylamino)-1-(2-imidazolin-2-yl)-2-imidazoline, monohydroiodide] | – | 5.19 | 5.52 | – |
| C(CN=C1NCCN1C1=NCCN1)CN1CCN(CCCN=C2NCCN2C2=NCCN2)CC1 [2-(3-{4-[3-(4,5,4',5'-Tetrahydro-3H,1'H-[1,2']biimidazolyl-2-ylideneamino)-propyl]-piperazin-1-yl}-propylimino)-2,3,4,5,4',5'-hexahydro-1'H-[1,2']biimidazolyl] | 10 | – | – | – |
| C(CCCNC1=NCCN1C1=NCCN1)CCNC1=NCCN1C1=NCCN1 | – | – | – | IC50 ([1]; values in nM): 0.1 µM |
| CCCCCCCNC1=NCCN1C1=NCCN1 [drawing 7, 2-(Heptylamino)-1-(2-imidazolin-2-yl)-2-imidazoline, monohydroiodide] | 10 to 100 | – | – | – |
| C1CCCCCC(NC2=NCCN2C2=NCCN2)CCCCC1 [drawing 25, 2-Cyclododecylamino-1-(2-imidazolin-2-yl)-2-imidazoline, monohydroiodide] | – | 5.96 | > 6.00 | – |
| C(CCCCCNC1=NCCN1C1=NCCN1)CCCCCNC1=NCCN1C1=NCCN1 | – | – | – | IC50 ([1]; values in nM): 0.6 µM |
| C(CCCCNC1=NCCN1C1=NCCN1)CCCCNC1=NCCN1C1=NCCN1 | – | – | – | pIC50 [1]: 5.89 |
| C1CCCCCC(NC2=NCCN2C2=NCCN2)CCCCC1 [drawing 11, 2-Cyclododecylamino-1-(2-imidazolin-2-yl)-2-imidazoline, monohydroiodide] | > 100 | – | – | – |
| CCCCCCCCCCCCCCCCCNC1=NCCN1C1=NCCN1 [2-(Heptadecylamino)-1-(2-imidazolin-2-yl)-2-imidazoline, monohydroiodide] | 1.32 | > 6.00 | > 6.00 | – |
| CCCCCCCCCCCCCN=C1NCCN1C1=NCCN1 [(4,5,4',5'-Tetrahydro-3H,1'H-[1,2']biimidazolyl-2-ylidene)-tridecyl-amine] | 50 | – | – | – |
| C(CCCCNC1=NCCN1C1=NCCN1)CCCNC1=NCCN1C1=NCCN1 | 33 | 4.21 | 4.40 | – |
| C(CCCNC1=NCCN1C1=NCCN1)CCCNC1=NCCN1C1=NCCN1 | 38 | – | – | – |
| C(CCCCCCNC1=NCCN1C1=NCCN1)CCCCCNC1=NCCN1C1=NCCN1 | – | – | – | pIC50 [1]: 5.92 |
| C(CCNC1=NCCN1C1=NCCN1)CCNC1=NCCN1C1=NCCN1 | 259 | < 4.00 | 4.13 | – |
